Reference: patent US9133204B2, “5-membered heterocyclic amides and related compounds” (H. Lundbeck A/S, priority 2007, dated 2015)

Target: T1, P2X7 receptor (Homo sapiens, UniProt Q99572)
T1 construct: host or cells: SH-SY5Y
T1 sequence (Q99572 1-595): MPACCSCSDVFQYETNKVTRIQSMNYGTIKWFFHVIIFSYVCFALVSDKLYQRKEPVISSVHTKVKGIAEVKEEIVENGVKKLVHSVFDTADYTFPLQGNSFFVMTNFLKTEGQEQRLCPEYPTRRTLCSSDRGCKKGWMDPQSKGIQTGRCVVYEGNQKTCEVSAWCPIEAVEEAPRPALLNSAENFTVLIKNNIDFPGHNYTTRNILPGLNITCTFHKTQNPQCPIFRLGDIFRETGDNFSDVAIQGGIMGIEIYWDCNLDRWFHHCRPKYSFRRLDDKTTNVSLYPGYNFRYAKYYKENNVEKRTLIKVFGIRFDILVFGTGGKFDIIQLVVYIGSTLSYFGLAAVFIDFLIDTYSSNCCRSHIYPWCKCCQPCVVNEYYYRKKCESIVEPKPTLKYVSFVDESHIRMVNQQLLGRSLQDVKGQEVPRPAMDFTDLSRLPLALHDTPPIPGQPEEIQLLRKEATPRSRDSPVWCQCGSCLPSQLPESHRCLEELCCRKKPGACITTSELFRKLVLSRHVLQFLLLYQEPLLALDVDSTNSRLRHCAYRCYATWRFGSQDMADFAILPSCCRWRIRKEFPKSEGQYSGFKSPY
Experiment: High throughput P2X7 calcium mobilization assay (Example 4A)
Format: cell-based
Details: SH-SY5Y cells; 50% decrease in fluorescence response of cells exposed to 80 μM BzATP; Table I
How it was run: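 Calcium mobilization read by FLIPR as peak fluorescence over 2 min after adding BzATP to a final 80 μM (about EC50). Beforehand, Fluo-4 AM-loaded SH-SY5Y cells sat 1 h at room temperature with compound at 1–2500 nM in pH 7.4 sucrose/HEPES buffer; signal minus no-agonist wells.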

| SMILES | IC50 [nM] |
| --- | --- |
| O=C(NCC(c1ccc(Cl)cc1)N1CCOCC1)c1sc(-c2ncccn2)nc1C(F)(F)F (stereo not drawn) [Compound 314, N-[2-(4-chlorophenyl)-2-morpholin-4-ylethyl]-2-pyrimidin-2-yl-4-(trifluoromethyl)-1,3-thiazole-5-carboxamide] | ≤ 2000 |
| Nc1nc(-n2cc(C(=O)NCC3(O)CCCCCC3)c(C(F)(F)F)n2)ncc1F [Compound 154, 1-(4-amino-5-fluoropyrimidin-2-yl)-N-[(1-hydroxycycloheptyl)methyl]-3-(trifluoromethyl)-1H-pyrazole-4-carboxamide] | ≤ 2000 |
| CCc1nccnc1-n1cc(C(=O)NCC2(c3cccnc3)CCCCC2)c(C(F)(F)F)n1 [Compound 188, 1-(3-ethylpyrazin-2-yl)-N-[(1-pyridin-3-ylcyclohexyl)methyl]-3-(trifluoromethyl)-1H-pyrazole-4-carboxamide] | ≤ 2000 |
| Cc1nn(-c2ncc(F)cn2)cc1C(=O)NCC12CC3CC(CC(C3)C1)C2 [Compound 112, N-(adamantan-1-ylmethyl)-1-(5-fluoropyrimidin-2-yl)-3-methyl-1H-pyrazole-4-carboxamide] | ≤ 2000 |
| CCc1nc(-c2ncccn2)sc1C(=O)NCC1(c2ccc(OC)cc2)CCCCC1 [Compound 250, 4-ethyl-N-{[1-(4-methoxyphenyl)cyclohexyl]methyl)-2-pyrimidin-2-yl-1,3-thiazole-5-carboxamide] | ≤ 2000 |
| CCc1nc(-c2ncccn2)sc1C(=O)NCC(CC(C)C)c1ccc(C(F)(F)F)nc1 (stereo not drawn) [Compound 305, 4-ethyl-N-{4-methyl-2-[6-(trifluoromethyl)pyridin-3-yl]pentyl}-2-pyrimidin-2-yl-1,3-thiazole-5-carboxamide] | ≤ 2000 |
| CCc1nc(-c2ncccn2)sc1C(=O)NCc1ccc(F)cc1Cl [Compound 231, N-(2-chloro-4-fluorobenzyl)-4-ethyl-2-pyrimidin-2-yl-1,3-thiazole-5-carboxamide] | ≤ 2000 |
| CCc1nc(-c2ncccn2)sc1C(=O)NCC1(c2ccc(Cl)nc2)CCCC1 [Compound 288, N-{[1-(6-chloropyridin-3-yl)cyclopentyl]methyl}-4-ethyl-2-pyrimidin-2-yl-1,3-thiazole-5-carboxamide] | ≤ 2000 |
| Nc1nc(-n2cc(C(=O)NCC3(N4CCOCC4)CCCCC3)c(C(F)(F)F)n2)ncc1F [Compound 144, 1-(4-amino-5-fluoropyrimidin-2-yl)-N-[(1-morpholin-4-ylcyclohexyl)methyl]-3-(trifluoromethyl)-1H-pyrazole-4-carboxamide] | ≤ 2000 |
| CCCCCCC(CNC(=O)c1cn(-c2ncccn2)nc1C(F)(F)F)c1ccccc1 (stereo not drawn) [Compound 212, N-(2-phenyloctyl)-1-pyrimidin-2-yl-3-(trifluoromethyl)-1H-pyrazole-4-carboxamide] | ≤ 2000 |
| Cc1cc(C(=O)NCC23CC4CC(CC(C4)C2)C3)n(C)n1 [Compound 46, N-(adamantan-1-ylmethyl)-1,3-dimethyl-1H-pyrazole-5-carboxamide] | ≤ 2000 |
| Cc1nc(OC2CCNCC2)sc1C(=O)NCC12CC3CC(CC(C3)C1)C2 [Compound 70, N-(adamantan-1-ylmethyl)-4-methyl-2-(piperidin-4-yloxy)-1,3-thiazole-5-carboxamide] | ≤ 2000 |

Second part, the compound after the results:

| IC50 [nM] | SMILES |
| --- | --- |
| ≤ 2000 | O=C(NCC1(c2cccnc2)CCCCC1)c1sc(N2CCOCC2)nc1C(F)(F)F [Compound 294, 2-morpholin-4-yl-N-[(1-pyridin-3-ylcyclohexyl)methyl]-4-(trifluoromethyl)-1,3-thiazole-5-carboxamide] |
| ≤ 2000 | CC(CNC(=O)c1cn(-c2ncc(F)c(N)n2)nc1C(F)(F)F)c1ccc(Cl)cc1 (stereo not drawn) [Compound 149, 1-(4-amino-5-fluoropyrimidin-2-yl)-N-[2-(4-chlorophenyl)propyl]-3-(trifluoromethyl)-1H-pyrazole-4-carboxamide] |
| ≤ 2000 | Cc1cccnc1-n1cc(C(=O)NCC23CC4CC(CC(C4)C2)C3)c(C(F)(F)F)n1 [Compound 132, N-(adamantan-1-ylmethyl)-1-(3-methylpyridin-2-yl)-3-(trifluoromethyl)-1H-pyrazole-4-carboxamide] |
| ≤ 2000 | Nc1nccnc1-n1cc(C(=O)NCC2(c3cccnc3)CCCCC2)c(C(F)(F)F)n1 [Compound 157, 1-(3-aminopyrazin-2-yl)-N-[(1-pyridin-3-ylcyclohexyl)methyl]-3-(trifluoromethyl)-1H-pyrazole-4-carboxamide] |
| ≤ 2000 | O=C(NCC12CC3CC(CC(C3)C1)C2)c1ccc(Br)s1 [Compound 76, N-(1-adamantylmethyl)-5-bromothiophene-2-carboxamide] |
| ≤ 2000 | CC(C)c1nn(-c2nccs2)cc1C(=O)NCC12CC3CC(CC(C3)C1)C2 [Compound 133, N-(adamantan-1-ylmethyl)-3-isopropyl-1-(1,3-thiazol-2-yl)-1H-pyrazole-4-carboxamide] |
| ≤ 2000 | NC1CCN(c2nc(C(F)(F)F)c(C(=O)NCC3(c4cccnc4)CCCCC3)s2)CC1 [Compound 303, 2-(4-aminopiperidin-1-yl)-N-[(1-pyridin-3-ylcyclohexyl)methyl]-4-(trifluoromethyl)-1,3-thiazole-5-carboxamide] |
| ≤ 2000 | O=C(NCC1(c2cccnc2)CCCCC1)c1sc(-c2cnccn2)nc1C(F)(F)F [Compound 316, 2-pyrazin-2-yl-N-[(1-pyridin-3-ylcyclohexyl)methyl]-4-(trifluoromethyl)-1,3-thiazole-5-carboxamide] |
| ≤ 2000 | Cc1nn(-c2nccnc2N)cc1C(=O)NCC(CC(C)C)c1ccc(C(F)(F)F)cc1 (stereo not drawn) [Compound 179, 1-(3-aminopyrazin-2-yl)-3-methyl-N-{4-methyl-2-[4-(trifluoromethyl)phenyl]pentyl}-1H-pyrazole-4-carboxamide] |
| ≤ 2000 | O=C(NCC1(c2cccnc2)CCCCC1)c1sc(-n2ccccc2=O)nc1C(F)(F)F [Compound 293, 2-(2-oxopyridin-1(2H)-yl)-N-[(1-pyridin-3-ylcyclohexyl)methyl]-4-(trifluoromethyl)-1,3-thiazole-5-carboxamide] |
| ≤ 2000 | Cc1nn(-c2nccc(N)n2)cc1C(=O)NCC1(c2ccc(C(F)(F)F)cc2)CCCCC1 [Compound 175, 1-(4-aminopyrimidin-2-yl)-3-methyl-N-({1-[4-(trifluoromethyl)phenyl]cyclohexyl]methyl)-1H-pyrazole-4-carboxamide] |
| ≤ 2000 | Cc1ccc(C2(CNC(=O)c3cn(-c4ncc(F)c(N)n4)nc3C(F)(F)F)CCCCC2)cn1 [Compound 138, 1-(4-amino-5-fluoropyrimidin-2-yl)-N-{[1-(6-methylpyridin-3-yl)cyclohexyl]methyl}-3-(trifluoromethyl)-1H-pyrazole-4-carboxamide] |

Same assay, conditions: SH-SY5Y cells; 50% decrease in fluorescence response of cells exposed to 80 μM BzATP; flag after the MS data in Examples 1-2

| IC50 [nM] | SMILES |
| --- | --- |
| ≤ 2000 | Nc1nn(-c2ncccn2)cc1C(=O)NCC12CC3CC(CC(C3)C1)C2 [Compound 6, N-(Adamantan-1-ylmethyl)-3-amino-1-pyrimidin-2-yl-1H-pyrazole-4-carboxamide] |
| ≤ 2000 | CN1CCN(C2(CNC(=O)c3sc(-c4ncccn4)nc3C(F)(F)F)CCCCCC2)CC1 [Compound 24, N-{[1-(4-methylpiperazin-1-yl)cycloheptyl]methyl}-2-pyrimidin-2-yl-4-(trifluoromethyl)-1,3-thiazole-5-carboxamide] |
| ≤ 2000 | Cn1nc(-c2ccccc2)cc1C(=O)NCC1(c2ccc(Cl)cc2)CCCCC1 [Compound 21, 1-Methyl-3-phenyl-N-[1-(4-chlorophenyl)cyclohexyl]methyl-1H-pyrazole-5-carboxamide] |
